Reference: patent US12673975B2, “Cyclic peptide, cell scaffold material, cell separating material, and medium” (FUJIFILM Corporation, priority 2019, dated 2026)
Starred links: 1 amine or outer side, 2 acyl side, 3 side chain; linkers in the order of their positions; H or OH if unused. Positions of bridges follow the written chain, without caps; N, C: chain ends. Non-standard residues stand in square brackets, D forms with d. Residues, ends and D or L forms follow the SMILES beside them. hTyr = N[C@@H](CCc1ccc(O)cc1)C(=O)O; hCys = N[C@@H](CCS)C(=O)O; hSer = N[C@@H](CCO)C(=O)O; Dab = NCC[C@H](N)C(=O)O; X2 = O=C(C[*:1])[*:2]

Assays:
human integrin αvβ5 = human integrin αvβ5 (Homo sapiens, UniProt P06756+P18084); experiment: Evaluation of integrin binding property (surface plasmon resonance, Biacore 3000, immobilized cyclic peptide); settings: SPR, 25° C., HEPES buffer with 5 mM magnesium chloride, integrin 30-1,000 nM; read-out: Performance evaluation: Binding activity (dissociation constant between the cyclic peptide and human integrin αvβ5)
Sequence of human integrin αvβ5 (P06756 31-1048): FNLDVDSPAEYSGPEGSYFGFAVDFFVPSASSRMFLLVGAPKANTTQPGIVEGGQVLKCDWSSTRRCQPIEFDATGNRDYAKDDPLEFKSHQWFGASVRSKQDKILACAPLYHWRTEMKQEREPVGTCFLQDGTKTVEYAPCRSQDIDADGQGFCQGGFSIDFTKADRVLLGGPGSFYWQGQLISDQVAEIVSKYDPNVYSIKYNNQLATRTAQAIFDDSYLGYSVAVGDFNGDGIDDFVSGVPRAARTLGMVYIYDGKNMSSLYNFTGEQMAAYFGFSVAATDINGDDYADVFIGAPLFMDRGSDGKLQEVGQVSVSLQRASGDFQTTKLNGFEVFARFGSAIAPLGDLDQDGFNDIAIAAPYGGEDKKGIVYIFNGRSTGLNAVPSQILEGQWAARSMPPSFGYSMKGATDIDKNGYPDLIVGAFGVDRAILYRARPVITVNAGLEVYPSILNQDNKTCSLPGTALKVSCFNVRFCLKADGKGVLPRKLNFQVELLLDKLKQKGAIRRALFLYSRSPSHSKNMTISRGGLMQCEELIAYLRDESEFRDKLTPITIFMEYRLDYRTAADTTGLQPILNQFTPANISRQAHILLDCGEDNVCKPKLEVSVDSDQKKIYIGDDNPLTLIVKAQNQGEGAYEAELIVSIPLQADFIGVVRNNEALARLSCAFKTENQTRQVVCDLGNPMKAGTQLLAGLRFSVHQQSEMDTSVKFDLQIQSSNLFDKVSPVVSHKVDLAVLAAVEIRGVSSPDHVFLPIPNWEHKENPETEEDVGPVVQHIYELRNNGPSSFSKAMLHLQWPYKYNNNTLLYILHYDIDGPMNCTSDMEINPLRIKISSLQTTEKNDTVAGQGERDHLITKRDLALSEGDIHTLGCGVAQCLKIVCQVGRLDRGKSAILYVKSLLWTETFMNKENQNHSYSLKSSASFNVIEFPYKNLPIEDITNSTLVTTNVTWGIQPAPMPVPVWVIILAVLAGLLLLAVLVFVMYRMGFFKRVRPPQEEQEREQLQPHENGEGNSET
Sequence of human integrin αvβ5 (P18084 24-799): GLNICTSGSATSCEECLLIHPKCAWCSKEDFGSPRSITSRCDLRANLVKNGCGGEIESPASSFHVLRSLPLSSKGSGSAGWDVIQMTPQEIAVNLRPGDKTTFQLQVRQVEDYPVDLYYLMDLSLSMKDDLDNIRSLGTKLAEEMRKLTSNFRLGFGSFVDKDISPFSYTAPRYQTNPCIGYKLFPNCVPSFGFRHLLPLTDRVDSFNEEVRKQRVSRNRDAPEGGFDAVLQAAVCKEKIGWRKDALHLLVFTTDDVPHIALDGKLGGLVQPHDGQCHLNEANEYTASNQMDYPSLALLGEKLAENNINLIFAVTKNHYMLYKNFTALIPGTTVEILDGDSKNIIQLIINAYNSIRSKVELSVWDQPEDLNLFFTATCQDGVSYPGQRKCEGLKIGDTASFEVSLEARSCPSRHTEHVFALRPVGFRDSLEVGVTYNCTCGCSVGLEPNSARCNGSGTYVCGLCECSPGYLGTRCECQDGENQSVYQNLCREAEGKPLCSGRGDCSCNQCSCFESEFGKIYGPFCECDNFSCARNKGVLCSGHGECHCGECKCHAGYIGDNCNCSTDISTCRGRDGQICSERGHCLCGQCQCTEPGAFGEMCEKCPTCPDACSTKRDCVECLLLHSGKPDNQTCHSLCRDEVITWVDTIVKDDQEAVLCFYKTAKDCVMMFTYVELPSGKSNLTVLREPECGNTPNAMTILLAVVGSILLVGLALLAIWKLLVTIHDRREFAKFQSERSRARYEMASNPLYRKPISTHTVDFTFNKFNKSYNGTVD
Method: A commercially available CMS (a carboxymethyl dextran introduction type, manufactured by GE Healthcare) sensor chip was set in Biacore 3000, which is a surface plasmon resonance apparatus manufactured by GE Healthcare, the sensor was stabilized at a flow rate of 10 μL/min of a HEPES (4-(2-hydroxyethyl)-1-piperazineethanesulfonic acid) buffer solution (20 mM HEPES-HCl, 150 mM NaCl, pH 7.4) for surface plasmon resonance (SPR), and 70 μL of a mixed aqueous solution of 0.2 M 1-(3-dimethylaminopropyl)-3-ethylcarbodiimide (EDC) and 0.04 M N-hydroxysuccinimide (NHS) was added thereto. Here, the concentration unit M represents mol/L, and the same applies hereinafter. Then, 20 μL of the sample solution of each of the above cyclic peptides diluted to 0.2 g/L with the HEPES buffer solution was supplied to the sensor chip, blocking treatment was subsequently carried out with an ethanolamine solution, and washing was carried out with a sodium hydroxide aqueous solution, whereby immobilization was carried out. However, only for the cyclic peptides 125, 126, and 127, in which the number of lysine residues having an amino group as the immobilizing functional group was zero, the amount of the sample solution to be supplied to the sensor chip was set to 500 μL instead of 20 μL. Further, 70 μL of the mixed aqueous solution of 0.2 M EDC and 0.04 M NHS was added to another flow channel of the same sensor chip without immobilizing the sample, and then blocking treatment and washing treatment were carried out. Hereinafter, the obtained immobilization-treated sensor chip is referred to as an “immobilization-treated sensor chip A”.
After adding human integrin αvβ5 for 10 minutes at 25° C., which was diluted to 30 nM using a HEPES buffer solution to which magnesium chloride was added to 5 mM, in each flow channel of the immobilization-treated sensor chip A prepared in (1) above, the same HEPES buffer solution (containing 5 mM magnesium chloride) was allowed to flow as a running buffer for 30 minutes, and measurement was carried out with Biacore 3000. Then, a regeneration treatment of removing human integrin αvβ5 was carried out by allowing a 0.5 M EDTA aqueous solution to flow through each flow channel for 10 minutes. Further, the above-described measurement process consisting of adding integrin for 10 minutes, allowing a running buffer to flow for 30 minutes, carrying out measurement with Biacore 3000, and carrying out regeneration treatment with 0.5 M EDTA aqueous solution was carried out in the same manner for 100 nM human integrin αvβ5, 300 nM human integrin αvβ5, and 1,000 nM human integrin αvβ5. Dissociation constant between the cyclic peptide and human integrin αvβ5 was calculated from the difference between the value measured by Biacore 3000 in the flow channel immobilized with the cyclic peptide and the value measured by Biacore 3000 in the flow channel unimmobilized with the cyclic peptide, in a case where each concentration of human integrin αvβ5 was allowed to flow, and the integrin binding property was evaluated according to the following evaluation standards. It is preferable that the evaluation result satisfies the evaluation standard A, B, or C.

[1] = Evaluation of molecule stability (alkali treatment, residual rate by LC/MS); assay type: physicochemical; settings: 500 μM peptide aqueous solution plus equivalent of 1 M sodium hydroxide, 15° C., 3 hours, LC/MS peak area
Method: The molecule stability of the cyclic peptide was evaluated by analyzing the alkali-treated cyclic peptide aqueous solution by liquid chromatography mass spectroscopy (LC/MS).
The alkali treatment was carried out by the following method. A 500 μM cyclic peptide aqueous solution was prepared, an equivalent of 1 M sodium hydroxide aqueous solution was added to this aqueous solution, and the resultant mixture was incubated at 15° C. for 3 hours to obtain an alkali-treated cyclic peptide aqueous solution. The cyclic peptide residual rate was calculated by setting the total area of all peaks of the cyclic peptide before alkali treatment in LC/MS to 100% and determining the proportion of the total area of all peaks in LC/MS of the alkali-treated cyclic peptide aqueous solution, and the molecule stability was evaluated according to the following evaluation standards. It is preferable that the evaluation result satisfies the evaluation standard A, B, or C.
The conditions of the LC/MS used for the evaluation of molecule stability were set as follows. • LC apparatus: Prominence series (pump, column oven, autosampler, detector) (manufactured by Shimadzu Corporation) • MS detector: LC/MS2010EV (manufactured by Shimadzu Corporation) • Column: Cadenza CD-C18, inner diameter 2.0 mm×length 250 mm, particle size: 3 μm (manufactured by Imtakt Corporation) • Eluent A: a solution (pH 3) containing 10 mM ammonium formate as a solute, where the solvent is 100% water. • Eluent B: a solution (pH 3) containing 10 mM ammonium formate as a solute, where the solvent is acetonitrile/water=90/10. • Flow rate: 0.2 mL/min • Injection volume: 4 μL • Gradient: 0% to 30%: Eluent B (0 to 30 minutes), 100%: Eluent B (30 to 40 minutes), 0%: Eluent B (40 to 60 minutes) • Column temperature: 45° C. • Ionization method: electrospray ionization (ESI) positive, ESI negative

Structure (SMILES) | Kd (human integrin αvβ5) | Performance evaluation: Stability (residual rate of cyclic peptide after alkali treatment) [1]
CC[C@H](C)[C@@H]1NC(=O)[C@@H](NC(=O)CNC(=O)[C@H](CCCCN)NC(=O)[C@H](CCCCN)NC(=O)[C@@H](N)CCCCN)CCSCC(=O)NCC[C@@H](C(=O)N[C@@H](C)C(=O)O)NC(=O)[C@H](CCCNC(=N)N)NC(=O)[C@H](Cc2ccccc2)NC(=O)[C@H](CC(N)=O)NC(=O)[C@H](CC(=O)O)NC(=O)CNC(=O)[C@H](CCCNC(=N)N)NC(=O)[C@@H]2CCCN2C1=O [Cyclic peptide 1, KKKG-(Hcy)-IPRGDNFR(Dab(acetyl))A] (H-KKKG[hCys]IPRGDNFR[Dab]A-OH; linker 5-14 via X2) | < 50 nM | A (The residual rate of the cyclic peptide is 70% or more.)
CC[C@H](C)[C@@H]1NC(=O)[C@@H](NC(=O)[C@H](C)NC(=O)[C@H](CCCCN)NC(=O)[C@H](CCCCN)NC(=O)[C@@H](N)CCCCN)CCSCC(=O)NCC[C@@H](C(=O)N[C@@H](C)C(=O)O)NC(=O)[C@H](CCCNC(=N)N)NC(=O)[C@H](Cc2ccccc2)NC(=O)[C@H](CC(N)=O)NC(=O)[C@H](CC(=O)O)NC(=O)CNC(=O)[C@H](CCCNC(=N)N)NC(=O)[C@@H]2CCCN2C1=O [Cyclic peptide 2, KKKA-(Hcy)-IPRGDNFR(Dab(acetyl))A] (H-KKKA[hCys]IPRGDNFR[Dab]A-OH; linker 5-14 via X2) | < 50 nM | A (The residual rate of the cyclic peptide is 70% or more.)
CC[C@H](C)[C@@H]1NC(=O)[C@@H](NC(=O)[C@H](CCCCN)NC(=O)[C@H](CCCCN)NC(=O)[C@@H](N)CCCCN)CCSCC(=O)NCC[C@@H](C(=O)N[C@@H](C)C(=O)O)NC(=O)[C@H](CCCNC(=N)N)NC(=O)[C@H](Cc2ccccc2)NC(=O)[C@H](CC(N)=O)NC(=O)[C@H](CC(=O)O)NC(=O)CNC(=O)[C@H](CCCNC(=N)N)NC(=O)[C@@H]2CCCN2C1=O [Cyclic peptide 3, KKK-(Hcy)-IPRGDNFR(Dab(acetyl))A] (H-KKK[hCys]IPRGDNFR[Dab]A-OH; linker 4-13 via X2) | < 50 nM | A (The residual rate of the cyclic peptide is 70% or more.)
CC[C@H](C)[C@@H]1NC(=O)[C@@H](NC(=O)[C@H](CCCCN)NC(=O)[C@H](CCCCN)NC(=O)[C@@H](N)CCCCN)CCSCC(=O)NCC[C@@H](C(=O)NCC(=O)O)NC(=O)[C@H](CCCNC(=N)N)NC(=O)[C@H](Cc2ccccc2)NC(=O)[C@H](CC(N)=O)NC(=O)[C@H](CC(=O)O)NC(=O)CNC(=O)[C@H](CCCNC(=N)N)NC(=O)[C@@H]2CCCN2C1=O [Cyclic peptide 4, KKK-(Hcy)-IPRGDNFR(Dab(acetyl))G] (H-KKK[hCys]IPRGDNFR[Dab]G-OH; linker 4-13 via X2) | < 50 nM | A (The residual rate of the cyclic peptide is 70% or more.)
CC[C@H](C)[C@@H]1NC(=O)[C@@H](NC(=O)[C@H](CCCCN)NC(=O)[C@H](CCCCN)NC(=O)[C@@H](N)CCCCN)CCSCC(=O)NCC[C@@H](C(=O)N[C@@H](CC(=O)O)C(=O)O)NC(=O)[C@H](CCCNC(=N)N)NC(=O)[C@H](Cc2ccccc2)NC(=O)[C@H](CC(N)=O)NC(=O)[C@H](CC(=O)O)NC(=O)CNC(=O)[C@H](CCCNC(=N)N)NC(=O)[C@@H]2CCCN2C1=O [Cyclic peptide 5, KKK-(Hcy)-IPRGDNFR(Dab(acetyl))D] (H-KKK[hCys]IPRGDNFR[Dab]D-OH; linker 4-13 via X2) | < 50 nM | A (The residual rate of the cyclic peptide is 70% or more.)
CC[C@H](C)[C@@H]1NC(=O)[C@@H](NC(=O)CNC(=O)[C@H](CCCCN)NC(=O)[C@H](CCCCN)NC(=O)[C@@H](N)CCCCN)CCSCC(=O)NCC[C@@H](C(=O)N[C@@H](C)C(=O)O)NC(=O)[C@H](Cc2ccccc2)NC(=O)[C@H](CC(N)=O)NC(=O)[C@H](CC(=O)O)NC(=O)CNC(=O)[C@H](CCCNC(=N)N)NC(=O)[C@@H]2CCCN2C1=O [Cyclic peptide 6, KKKG-(Hcy)-IPRGDNF(Dab(acetyl))A] (H-KKKG[hCys]IPRGDNF[Dab]A-OH; linker 5-13 via X2) | 50 to 100 nM | A (The residual rate of the cyclic peptide is 70% or more.)
CC[C@H](C)[C@@H]1NC(=O)[C@@H](NC(=O)CNC(=O)[C@H](CCCCN)NC(=O)[C@H](CCCCN)NC(=O)[C@@H](N)CCCCN)CCSCC(=O)NCC[C@@H](C(=O)O)NC(=O)[C@H](CCCNC(=N)N)NC(=O)[C@H](Cc2ccccc2)NC(=O)[C@H](CC(N)=O)NC(=O)[C@H](CC(=O)O)NC(=O)CNC(=O)[C@H](CCCNC(=N)N)NC(=O)[C@@H]2CCCN2C1=O [Cyclic peptide 7, KKKG-(Hcy)-IPRGDNFR(Dab(acetyl))] (H-KKKG[hCys]IPRGDNFR[Dab]-OH; linker 5-14 via X2) | < 50 nM | A (The residual rate of the cyclic peptide is 70% or more.)
C[C@H](NC(=O)[C@@H]1CCNC(=O)CSCC[C@H](NC(=O)CNC(=O)[C@H](CCCCN)NC(=O)[C@H](CCCCN)NC(=O)[C@@H](N)CCCCN)C(=O)N2CCC[C@H]2C(=O)N[C@@H](CCCNC(=N)N)C(=O)NCC(=O)N[C@@H](CC(=O)O)C(=O)N[C@@H](CC(N)=O)C(=O)N[C@@H](Cc2ccccc2)C(=O)N[C@@H](CCCNC(=N)N)C(=O)N1)C(=O)O [Cyclic peptide 8, KKKG-(Hcy)-PRGDNFR(Dab(acetyl))A] (H-KKKG[hCys]PRGDNFR[Dab]A-OH; linker 5-13 via X2) | 50 to 100 nM | A (The residual rate of the cyclic peptide is 70% or more.)
C[C@H](NC(=O)[C@@H]1CCNC(=O)CSCC[C@H](NC(=O)CNC(=O)[C@H](CCCCN)NC(=O)[C@H](CCCCN)NC(=O)[C@@H](N)CCCCN)C(=O)N[C@@H](CCc2ccc(O)cc2)C(=O)N2CCC[C@H]2C(=O)N[C@@H](CCCNC(=N)N)C(=O)NCC(=O)N[C@@H](CC(=O)O)C(=O)N[C@@H]([C@@H](C)O)C(=O)N[C@@H](Cc2ccccc2)C(=O)N[C@@H](CCCNC(=N)N)C(=O)N1)C(=O)O [Cyclic peptide 68, KKKG-(Hcy)-(HmY)-PRGDTFR(Dab(acetyl))A] (H-KKKG[hCys][hTyr]PRGDTFR[Dab]A-OH; linker 5-14 via X2) |  | A (The residual rate of the cyclic peptide is 70% or more.)
CC[C@H](C)[C@@H]1NC(=O)[C@@H](NC(=O)CNC(=O)[C@H](CCCCN)NC(=O)[C@H](CCCCN)NC(=O)[C@@H](N)CCCCN)CCSCC(=O)NCC[C@@H](C(=O)N[C@@H](C)C(=O)O)NC(=O)[C@H](CCCNC(=N)N)NC(=O)[C@H](Cc2ccccc2)NC(=O)[C@H](CCO)NC(=O)[C@H](CC(=O)O)NC(=O)CNC(=O)[C@H](CCCNC(=N)N)NC(=O)[C@@H]2CCCN2C1=O [Cyclic peptide 73, KKKG-(Hcy)-IPRGD-(HmS)-FR(Dab(acetyl))A] (H-KKKG[hCys]IPRGD[hSer]FR[Dab]A-OH; linker 5-14 via X2) |  | A (The residual rate of the cyclic peptide is 70% or more.)
